The values that follow come from patent US20150337351A1, “METHODS OF MICROORGANISM IMMOBILIZATION” (priority 2014, published 2015).

Structures are written as SMILES.

The test system of assay [1] is Pseudomonas aeruginosa IHMA 519749 (Paer). The assay is described as follows: Biosensor mixed species diffusion assay (immobilized cells, microscopic detection), growth of resistant strain. The format is cell-based. Conditions: for Paer growth?: CAZ 16 (16 μg/mL), MHA 0.850% agar, 4 hours. The procedure: (§1) A mixed species diffusion variation of Hodge test using a biosensor with immobilized cells and microscopic detection was performed using the same bacterial strains. Heavy suspensions of Ecol and Paer were prepared in L-histidine buffer from fresh overnight blood agar plates. Heavy suspensions were diluted in normal saline to produce 0.5 McFarland suspensions, noting the volumes of each suspension required and using the same volumes to produce 10^8 cfu/mL suspensions of each strain in L-histidine. These suspensions were further diluted to create […] and 2×10^5 cfu/mL suspensions for heavy and moderate density working samples. The working samples were then diluted 1:1 in 2 mM L-DOPA for EKC.
(§2) The strains were next introduced to a biosensor for EKC, immobilization, and detection. Paer suspensions were loaded first, placing 5 uL in the exit port side (to maintain the resistant Paer isolate in one half of each channel) of each biosensor flowcell channel to cover one half of the flowcell. Six flowcells were loaded with each concentration. EKC was performed for 5 minutes at 1.5V, and then all flowcells were washed with two aliquots of 160 μL 1 mM L-DOPA (from the entry port). Ecol suspensions were next loaded, introducing 20 μL of cells suspension from the entry port to cover the full flowcell. Six flowcells were loaded with each concentration. EKC was performed for 5 minutes at 1.5V, and all flowcells washed with 160 μL of 1/10 MHB. The manner in which the cells were introduced and captures created a site comprising Ecol cells that were distal from any Paer cells (i.e., on the entry port side of the flowcell), as well as Ecol cells that were proximal to the Paer cells (i.e., on the exit port side of the flowcell).
(§3) Antibiotic media were prepared for immobilization and inhibition testing as follows. […] An immobilization medium source plate was prepared in the detection system and maintained at 45° C. The source plate wells were loaded with 20 μL of the 10× stocks and MHB without antibiotic for growth controls. The sample cassette was placed in the detection system and maintained at 40° C. A 180 uL volume of 0.944% MHA was added to each well of the source plate and mixed, and 100 uL of pre-immobilization immobilizing medium (with an agar concentration of 0.850%) was withdrawn and introduced to a flowcell in accordance with the experimental design. The loaded biosensor was allowed to equilibrate for 5 minutes, and was then removed and cooled for 5 minutes to induce the agar immobilizing agent to change to solid phase. The flowcell ports were then sealed, and growth, imaging, and analysis were performed, with examination of each flowcell for growth of Paer, examination of the distal portion of each flowcell for growth of Ecol in the absence of Paer (distal sensitivity), and examination of the proximal portion of each flowcell for growth of Ecol in the presence of Paer (proximal resistance), indicative of a positive mixed species resistance due to diffusion of metallo-beta-lactamase.
(§4) In order to test for enzyme-mediated cross-species resistance effects, a method for was devised to test a sensitive strain, Escherichia coli ATCC 25922 (Ecol), in the presence of a resistant strain, Pseudomonas aeruginosa IHMA 519749 (Paer) in the immobilized format. The method involved first immobilizing the resistant strain on the surface of a portion of each test flowcell of the cassette (approximately half) and then immobilizing the sensitive (sentinel) strain on the surface of the full flowcell including the area containing the resistant strain. This strategy provides an internal control for treatment effects on the sentinel strain in an area far from the resistant strain along with an area where close-field effects can be observed in the same flowcell. […]

Another assay has as its system E. coli 25922 (Ecol). The assay is described as follows: Plate-based disk diffusion tests, sensitive strain. Type of assay: cell-based, Escherichia coli. The note with it: blood agar lawn plates, antibiotic disk, overnight at 35° C. The procedure: (§5) Several nutrient agar plating methods employing antibiotics, other chemicals, and one or more species of bacteria have been devised to study these mechanisms. The most basic of these tests, the disk-diffusion method, employs a single test strain of bacteria which is used to create a uniform layer or lawn when grown. A disk-containing antibiotic is placed on the inoculated plate and the plate is then incubated to grow the lawn. In cases where the strain is sensitive to the antibiotic, a zone of no growth is observed around the disk. The distance from the disk to the edge of this zone is an indicator of the level of resistance to the antibiotic present in the disk, based on how far the antibiotic can diffuse into the nutrient medium. A variation on this test is to employ a second disk or drop of fluid near the antibiotic disk that contains a chemical that can affect the antibiotic response. Differences between the zone in areas near the chemical and away from the chemical can indicate the type of resistance mechanism at work in the test. In this case, the chelating agent ethylenediamine tetraacetic acid (EDTA) (Sigma-Aldrich) can be used to test for the presence of a class of antibiotic resistance enzyme called metallo-beta-lactamase, which is inhibited by EDTA. The positive result for this test is a larger zone of inhibition near the EDTA indicating reduced effectiveness of the enzyme. […]
(In general: Agar diffusion results depend on both activity and mobility in agar.)

Assay [2] relates to Escherichia coli ATCC 25922 (Ecol). The assay is described as follows: Biosensor mixed species diffusion assay (immobilized cells, microscopic detection), growth of sentinel strain. The format is cell-based. The note with it: for Mixed species resistance factor diffusion? / Ecol growth in distal site? / Ecol growth in proximal site?: CAZ 16 (16 μg/mL); for Ecol growth in distal site?: distal from Paer; for Ecol growth in proximal site?: proximal to Paer. The procedure:
as §1, §2, §3, §4

Assay [3] concerns P. aeruginosa 519749 (Paer). The assay is described as follows: Plate-based disk diffusion tests, resistant strain. Type of assay: cell-based, Pseudomonas aeruginosa. Conditions: blood agar lawn plates, antibiotic disk, overnight at 35° C. The procedure:
as §5

Where [4] appears, read: Flowcell 5, Ecol 10^6/Paer 10^6.
Setting [5] is: Flowcell 6, Ecol 10^6/Paer 10^5.
The mark [6] stands for this setting: Flowcell 7, Ecol 10^5/Paer 10^6.
Where [7] appears, read: Flowcell 8, Ecol 10^5/Paer 10^5.
[8] abbreviates: Flowcell 5, Ecol 10^6/Paer 10^6, 4 hours.
[9] abbreviates: Flowcell 6, Ecol 10^6/Paer 10^5, 4 hours.
Setting [10] is: Flowcell 7, Ecol 10^5/Paer 10^6, 4 hours.
Where [11] appears, read: Flowcell 8, Ecol 10^5/Paer 10^5, 4 hours.

With `CC(C)(O/N=C(\C(=O)N[C@@H]1C(=O)N2C(C(=O)[O-])=C(C[n+]3ccccc3)CS[C@H]12)c1csc(N)n1)C(=O)O` [CAZ, ceftazidime], the “Paer growth morphology and rate under antibiotic vs growth control” value in assay [1] (CAZ at 16 μg/mL, immobilized in MHA, proximal site) is “same morphology and growth rate as the growth control condition”. For the same compound, the “Paer growth?” value in assay [1] (setting [4]), in assay [1] (setting [5]), in assay [1] (setting [6]) and in assay [1] (setting [7]) was “Yes” in each case. For the same compound, in the assay on E. coli 25922 (Ecol), the “Susceptibility of Ecol strain in plating-based tests” value is listed as “sensitive”. In assay [2] (CAZ at 16 μg/mL, immobilized in MHA, 4 hours), the “Ecol growth and morphology under antibiotic (time-lapse images)” value was “slight growth or elongation of the single cell with later fading and in many colonies complete lysis”. Moreover, the “Mixed species resistance factor diffusion?” value in assay [2] (setting [4]), in assay [2] (setting [5]), in assay [2] (setting [6]) and in assay [2] (setting [7]) was “No” each time. Further, the “Ecol growth in distal site?” value in assay [2] (setting [8]), in assay [2] (setting [9]), in assay [2] (setting [10]) and in assay [2] (setting [11]) was “No” each time. In addition, the “Ecol growth in proximal site?” value in assay [2] (setting [8]), in assay [2] (setting [9]), in assay [2] (setting [10]) and in assay [2] (setting [11]) was “No” in each case. Also, in assay [3], the “Resistance of Paer isolate in plating-based tests” value is “high resistance”. In assay [3], the “Zone of inhibition, Paer isolate” value is on record as “no zone of inhibition observed”.
